Test results reported in patent US4956345A, “2-alkynyladenosines as antihypertensive agents” (Yamasa Shoyu Kabushiki Kaisha, priority 1985, dated 1990).
Where two headings read alike, the source gives them in different places.

Columns and labels:
heart rate = experiment: Test 3: change in heart rate in NR; type: in vivo, male Wistar rats (normotensive rats; conditions: 100 μg/kg, procedure of Test 2, 10- to 12-week-old male Wistar rats
Description: (§1) The procedure of Test 2 was followed with 10- to 12-week-old male Wistar rats (divided into groups of three rats each) to measure the hypotensive effects of the respective pharmaceutical preparations (100 μg/kg). Simultaneously, the change in heart rate was measured. The heart rate was measured by an ictometer based on the systolic blood pressure as a trigger.

blood pressure in NR [1] = experiment: Test 3: effect on the blood pressure in NR, intravenous; type: in vivo, male Wistar rats (normotensive rats; conditions: 100 μg/kg, procedure of Test 2 (femoral vein), 10- to 12-week-old male Wistar rats
Description: (§2) Thirty-two-week-old male SHRs (divided into groups of three rats each) were anesthetized with urethane (1.1 g/kg, i.p.), and the blood pressure of each of the rats delivered from the common carotid artery was recorded on a polygraph through a pressure transducer (Model MPU-0.5).
(§3) The pharmaceutical preparation was administered through a cannula inserted into the femoral vein of the rat at a rate of 0.5 ml/kg, and the blood pressure was measured continuously from before administration to 30 minutes after administration.
as §1

blood pressure in SHR [2] = experiment: Test 1: effect on the blood pressure in SHR, oral, tail artery sphygmomanometer; type: in vivo, spontaneously hypertensive rats (SHR); conditions: 12- to 15-week-old male SHR, maximum within 2, 4, 6 and 8 hours
Description: To twelve- to fifteen-week-old male SHRs were orally administered test compounds each suspended in 0.5% CMC/physiological saline at a rate of 2 ml/kg. The blood pressure of the thus treated SHRs was measured by means of a tail artery sphygmomanometer (supplied by Nalco Co., Model PE-300) prior to the oral administration and at 2, 4, 6 and 8 hours thereafter. Reduction in blood pressure was calculated on the basis of the values thus obtained, and the maximum reduction levels attained by the respective compounds are summarized in TABLE 2. Each test compound was evaluated with a group of 4 rats.

male Jcl:ICR mice = experiment: Test 5: Acute toxicity; type: in vivo
Description: (§4) The acute toxicity of Compound 8(n=13) was tested with seven-week-old male Jcl:ICR mice.
(§5) The physically allowable doses of Compound 8 for intraperitoneal administration and oral administration were 800 mg/kg and 1,300 mg/kg, respectively.

blood pressure in SHR [3] = experiment: Test 2: effect on the blood pressure in SHR, intravenous, anesthetized; type: in vivo, spontaneously hypertensive rats (SHR), male; conditions: for Reduction in blood pressure (-Δmax, mmHg): 100 μg/kg, femoral vein, 32-week-old male SHR, urethane anesthesia, 30 minutes; for selectivity of hypotensive effect, SHR versus NR (in words): TABLES 3 and 4, 100 μg/kg
Description: as §2, §3

blood pressure in NR [4] = experiment: Test 4: effect on the blood pressure in NR, oral; type: in vivo, male Wistar rats (normotensive rats; conditions: Wistar rat, 18- to 20-week-old male, 10 mg/kg
Description: Eighteen- to twenty-week-old male SHR (divided into groups of four rats each) and eighteen- to twenty-week-old male Wistar rats (divided into groups of four rats each) were orally administered with Compound 8(n=13) in the same manner as in Test 2 at a dose of 10 mg/kg, and the blood pressure of each of the rats was measured.

Test 5: Acute toxicity = type: in vivo; conditions: mouse, in vivo
Description: as §4, §5

blood pressure in SHR [5] = experiment: Test 4: effect on the blood pressure in SHR, oral; type: in vivo, spontaneously hypertensive rats (SHR), male; conditions: 10 mg/kg
heart = conditions: side effect, background statement; cited from earlier work
adenosine deaminase = conditions: background statement; cited from earlier work

| Structure (SMILES) | Change in heart rate (ΔHR) (heart rate) | Reduction in blood pressure (-Δmax, mmHg) (blood pressure in NR [1]) [mmHg] | Reduction in blood pressure (-Δmax, mmHg) (blood pressure in SHR [2]; 3 mg/kg) [mmHg] | further results |
| --- | --- | --- | --- | --- |
| CCCC#Cc1nc(N)c2ncn([C@@H]3O[C@H](CO)[C@@H](O)[C@H]3O)c2n1 [Compound 1] | -48 | 21 |  |  |
| CCCCC#Cc1nc(N)c2ncn([C@@H]3O[C@H](CO)[C@@H](O)[C@H]3O)c2n1 [Compound 2] | -36 | 42 |  | Reduction in blood pressure (-Δmax, mmHg) (blood pressure in SHR [2]; 1 mg/kg): > 136 mmHg |
| CCCCCC#Cc1nc(N)c2ncn([C@@H]3O[C@H](CO)[C@@H](O)[C@H]3O)c2n1 [Compound 3] | -180 | 48 |  |  |
| CCCCCCC#Cc1nc(N)c2ncn([C@@H]3O[C@H](CO)[C@@H](O)[C@H]3O)c2n1 [Compound 4] | -288 | 55 |  | Reduction in blood pressure (-Δmax, mmHg) (blood pressure in SHR [2]; 1 mg/kg): 69 mmHg |
| CCCCCCCCC#Cc1nc(N)c2ncn([C@@H]3O[C@H](CO)[C@@H](O)[C@H]3O)c2n1 [Compound 5] | -18 | 24 | 106 |  |
| CCCCCCCCCCC#Cc1nc(N)c2ncn([C@@H]3O[C@H](CO)[C@@H](O)[C@H]3O)c2n1 [Compound 6] | -12 | 26 | 65 | mortality, intraperitoneal administration of 500 mg/kg (male Jcl:ICR mice; mouse, in vivo): all the five mice forming one group died; Reduction in blood pressure (-Δmax, mmHg) (blood pressure in SHR [3]): 20 mmHg; selectivity of hypotensive effect, SHR versus NR (in words) (blood pressure in SHR [3]): substantially equal hypotensive effect on SHR and NR |
| CCCCCCCCCCCCC#Cc1nc(N)c2ncn([C@@H]3O[C@H](CO)[C@@H](O)[C@H]3O)c2n1 [Compound 7] | 0 | 10 | 65 | Reduction in blood pressure (-Δmax, mmHg) (blood pressure in SHR [3]): 21 mmHg; selectivity of hypotensive effect, SHR versus NR (in words) (blood pressure in SHR [3]): acted selectively on SHR |
| CCCCCCCCCCCCCCC#Cc1nc(N)c2ncn([C@@H]3O[C@H](CO)[C@@H](O)[C@H]3O)c2n1 [Compound 8] | 0 | 5 | 48 | Reduction in blood pressure (-Δ, mmHg), 1 hr. after administration (blood pressure in NR [4]; 1 hr): 16 mmHg; Reduction in blood pressure (-Δ, mmHg), 2 hrs. after administration (blood pressure in NR [4]; 2 hrs): 24 mmHg; LD50 (Test 5: Acute toxicity; ip, read-out: LD50, intraperitoneal administration): > 800 mg/kg; selectivity ratio (Test 5: Acute toxicity; po): ≥ 400; LD50 (Test 5: Acute toxicity; po, read-out: LD50, oral administration): > 1300 mg/kg; toxicity compared with Compound 6 (in words) (male Jcl:ICR mice; compared with long-chain compound such as Compound 6): less toxic; mortality at maximum doses (male Jcl:ICR mice; mouse, in vivo): None of the mice administered with the test compound at these maximum doses, divided into groups of five mice each, died; selectivity of hypotensive effect on SHR, oral (in words) (blood pressure in SHR [5]; SHR versus Wistar rat, TABLE 5): tendency of Compound 8(n=13) to act selectively on SHR; Reduction in blood pressure (-Δ, mmHg), 1 hr. after administration (blood pressure in SHR [5]; SHR, 18- to 20-week-old male, 1 hr): 41 mmHg; Reduction in blood pressure (-Δ, mmHg), 2 hrs. after administration (blood pressure in SHR [5]; SHR, 18- to 20-week-old male, 2 hrs): 42 mmHg; Reduction in blood pressure (-Δmax, mmHg) (blood pressure in SHR [3]): 16 mmHg; selectivity of hypotensive effect, SHR versus NR (in words) (blood pressure in SHR [3]): acted selectively on SHR |
| CCCCCCCCCCCCCCCC#Cc1nc(N)c2ncn([C@@H]3O[C@H](CO)[C@@H](O)[C@H]3O)c2n1 [Compound 9] | -6 | 3 | 35 |  |
| CCCCCCCCCCCCCCCCC#Cc1nc(N)c2ncn([C@@H]3O[C@H](CO)[C@@H](O)[C@H]3O)c2n1 [Compound 10] | -5 | 10 | 46 |  |
| Nc1ncnc2c1ncn2[C@@H]1O[C@H](CO)[C@@H](O)[C@H]1O [adenosine] |  |  |  | suppressive effect on the heart (heart): strong suppressive effect on the heart; deamination by adenosine deaminase (adenosine deaminase): rapidly deaminated by adenosine deaminase |
